Experimental data taken from ChEMBL document CHEMBL1201862, “PubChem BioAssay data set” (2004).
Active and inactive are the calls of the source.

Tests used:
cells = assay type: functional
[1] = microbe, parasite or virus in culture; assay type: functional; conditions: Mycobacterium tuberculosis
[2] = target: FAD-linked sulfhydryl oxidase ALR (Homo sapiens, UniProt P55789); test: ALR-catalysed DTT oxidation blockers – biochemical, H2O2 detection, luminescence, cherry-pick, dose response (AID 493248)
[3] = Luminescence Cell-Based Dose Retest to Confirm Inhibitors of Cancer Stem Cells. [Related pubchem assays (depositor defined):AID2717, AID2721]; assay type: functional; conditions: Homo sapiens
[4] = viability of HCT116 lacking mutant beta-catenin – cell-based, human colon tumor, dose response (AID 1045); assay type: functional;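 note: HCT116 colon tumor cells with beta catenin knocked out; cells exposed to compound for 60 hours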
[5] = viability of PTEN-deleted HCT116 cells – cell-based, HCT116 PTEN knockout, dose response (AID 1047); assay type: functional;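 note: HCT116 colon tumor cells with PTEN knocked out; cells exposed to compound for 60 hours before readout; potency for loss of cell viability measured by luminescence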
Caspase-6 = target: T1, Caspase-6 (Homo sapiens, UniProt P55212); test: inhibition of CASP6 peptide cleavage – biochemical, VEID-R110 fluorescence, cherry-pick, dose response (AID 720632)
T1 sequence (P55212 whole entry): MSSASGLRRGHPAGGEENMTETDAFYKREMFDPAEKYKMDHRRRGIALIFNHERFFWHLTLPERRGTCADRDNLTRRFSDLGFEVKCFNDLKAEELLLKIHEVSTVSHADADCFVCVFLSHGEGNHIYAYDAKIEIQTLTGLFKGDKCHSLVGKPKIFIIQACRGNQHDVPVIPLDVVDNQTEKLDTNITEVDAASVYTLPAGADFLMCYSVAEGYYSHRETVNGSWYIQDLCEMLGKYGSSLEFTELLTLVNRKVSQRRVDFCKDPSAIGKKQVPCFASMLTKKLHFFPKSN

[6] = target: T2, Polyadenylate-binding protein 1 (Homo sapiens, UniProt P11940); test: MLLE binding blockers, Cy5 peptide tracer – biochemical, fluorescence polarization, Cy5-PAM2 peptide, secondary, miRNA deadenylation inhibitor project, dose response (AID 602260); assay type: functional; conditions: read-out: IC50_Mean
[7] = target: T2, Polyadenylate-binding protein 1; test: MLLE domain peptide-binding blockers, IC50 – biochemical, fluorescence polarization, FITC-PAM2 peptide, dose response (AID 602259); assay type: functional; conditions: read-out: IC50_Mean
[8] = target: Glucose-6-phosphate 1-dehydrogenase (Homo sapiens, UniProt P11413); test: inhibition of Homo sapiens G6PD, dose series – biochemical, fluorescence, selectivity assay for P. falciparum G6PD inhibitor project, dose response (AID 504792); assay type: functional
Leucine aminopeptidase = target: T3, Leucine aminopeptidase (Plasmodium falciparum 3D7, UniProt Q8IL11); test: P. falciparum M17LAP inhibitors, primary screen, biochemical, fluorogenic H-Leu-NHMec substrate, 1536-well (AID 1619); assay type: functional
T3 sequence (Q8IL11 whole entry): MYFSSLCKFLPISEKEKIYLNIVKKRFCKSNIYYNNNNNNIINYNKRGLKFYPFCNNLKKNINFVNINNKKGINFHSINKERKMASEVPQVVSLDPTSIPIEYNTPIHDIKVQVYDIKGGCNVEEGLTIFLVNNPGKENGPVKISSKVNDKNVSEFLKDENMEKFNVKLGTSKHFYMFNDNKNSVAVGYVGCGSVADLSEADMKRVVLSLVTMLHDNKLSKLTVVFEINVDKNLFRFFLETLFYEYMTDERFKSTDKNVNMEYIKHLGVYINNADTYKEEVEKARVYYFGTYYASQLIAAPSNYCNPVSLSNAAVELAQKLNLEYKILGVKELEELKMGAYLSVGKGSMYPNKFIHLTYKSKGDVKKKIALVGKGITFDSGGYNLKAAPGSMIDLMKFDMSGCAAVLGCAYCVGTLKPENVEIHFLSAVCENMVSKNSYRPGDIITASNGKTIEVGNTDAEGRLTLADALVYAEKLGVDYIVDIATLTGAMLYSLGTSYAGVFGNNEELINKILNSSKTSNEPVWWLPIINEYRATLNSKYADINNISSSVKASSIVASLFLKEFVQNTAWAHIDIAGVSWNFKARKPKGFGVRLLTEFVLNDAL

[9] = target: T4, Calpain-2 catalytic subunit (Sus scrofa, UniProt P43367); test: m-calpain protease blockers, concentration series – biochemical, fluorogenic peptide substrate, dose response (AID 1420); assay type: functional
T4 sequence (P43367 whole entry): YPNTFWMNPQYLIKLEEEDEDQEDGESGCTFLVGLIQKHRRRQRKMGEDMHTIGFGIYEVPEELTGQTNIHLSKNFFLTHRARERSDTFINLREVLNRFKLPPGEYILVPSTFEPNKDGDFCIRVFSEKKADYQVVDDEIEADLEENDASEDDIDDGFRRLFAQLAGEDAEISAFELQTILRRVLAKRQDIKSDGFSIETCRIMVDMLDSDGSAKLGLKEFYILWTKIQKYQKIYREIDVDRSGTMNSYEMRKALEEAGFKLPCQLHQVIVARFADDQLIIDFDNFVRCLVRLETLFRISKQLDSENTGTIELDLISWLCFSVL

INS1 = test: INS-1E survival protection against cytokine death – cell-based, luminescence, retest, dose response (AID 449756); assay type: functional; conditions: Rattus norvegicus;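 note: cell death triggered by IL-1 beta plus TNF-alpha plus IFN-gamma mixture; protective hits raise ATP signal compared with cytokine alone wells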
H9c2 = test: cells; assay type: functional, cell-based; conditions: Rattus norvegicus, H9c2, Myocardium;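 note: confirmatory concentration-response retest of ultra-high-throughput screening hits for modulation of myocardial damage; cell death induced by hydrogen peroxide oxidative stress; compound pretreatment for 60 min then peroxide exposure for 2 h; potency is for protecting the cells against peroxide damage rather than for killing them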
[10] = tested on: Streptococcus sp. 'group A'; test: Streptococcus pyogenes SK(-)GAS viability under kanamycin – luminescence, BacTiterGlo, confirmation, counter-screen for streptokinase expression inhibitor project, dose response (AID 1900); assay type: functional, organism-based
[11] = viability of uninfected HEp-2 cells – cell-based, HTS, cytotoxicity control for RSV inhibitor project, dose response (AID 2410); assay type: functional; conditions: human respiratory syncytial virus
Streptococcus = test: GAS UMAA2166 growth inhibition – luminescence, BacTiterGlo, counter-screen for streptokinase expression inhibitor project, dose response (AID 1915); assay type: functional, organism-based;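 note: potency for reduction of bacterial viability or growth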
Genome polyprotein = Genome polyprotein (dengue virus type 2, UniProt P29990); test: flavivirus cap methylation enzyme inhibition – biochemical, confirmation dose response, primary screen (AID 588689); assay type: functional
Genome polyprotein, sequence (P29990 2492-3391 limits assumed): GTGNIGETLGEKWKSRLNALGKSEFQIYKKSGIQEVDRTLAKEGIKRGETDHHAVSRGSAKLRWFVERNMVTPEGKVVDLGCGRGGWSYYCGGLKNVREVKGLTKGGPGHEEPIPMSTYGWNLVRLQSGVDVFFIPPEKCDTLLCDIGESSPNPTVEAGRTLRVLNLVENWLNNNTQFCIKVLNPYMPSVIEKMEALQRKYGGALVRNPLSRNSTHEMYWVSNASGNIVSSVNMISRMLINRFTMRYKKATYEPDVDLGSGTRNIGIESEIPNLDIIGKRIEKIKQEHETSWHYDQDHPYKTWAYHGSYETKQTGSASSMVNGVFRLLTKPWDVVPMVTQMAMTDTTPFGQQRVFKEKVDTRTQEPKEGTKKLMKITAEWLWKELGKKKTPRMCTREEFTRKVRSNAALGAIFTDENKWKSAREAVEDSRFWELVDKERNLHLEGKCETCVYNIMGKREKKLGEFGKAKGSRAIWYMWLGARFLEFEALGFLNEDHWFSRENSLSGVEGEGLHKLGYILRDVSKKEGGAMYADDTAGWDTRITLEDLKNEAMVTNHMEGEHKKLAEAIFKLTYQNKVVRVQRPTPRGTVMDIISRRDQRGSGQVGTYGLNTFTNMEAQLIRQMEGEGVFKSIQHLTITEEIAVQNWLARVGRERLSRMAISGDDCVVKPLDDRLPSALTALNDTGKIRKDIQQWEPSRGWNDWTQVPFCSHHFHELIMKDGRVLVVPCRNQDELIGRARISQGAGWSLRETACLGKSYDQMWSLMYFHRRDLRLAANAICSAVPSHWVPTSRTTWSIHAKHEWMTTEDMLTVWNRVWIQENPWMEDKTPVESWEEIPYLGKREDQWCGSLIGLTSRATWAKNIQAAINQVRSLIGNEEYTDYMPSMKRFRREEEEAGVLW

FAD-linked sulfhydryl oxidase ALR, sequence (P55789 whole entry): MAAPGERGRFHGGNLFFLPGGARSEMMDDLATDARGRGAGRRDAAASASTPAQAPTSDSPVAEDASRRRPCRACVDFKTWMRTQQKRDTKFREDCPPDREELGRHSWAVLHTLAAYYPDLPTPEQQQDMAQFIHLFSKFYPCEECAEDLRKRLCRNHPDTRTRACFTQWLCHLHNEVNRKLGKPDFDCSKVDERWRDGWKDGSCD
T2 sequence (P11940 whole entry, the tested form may be a part): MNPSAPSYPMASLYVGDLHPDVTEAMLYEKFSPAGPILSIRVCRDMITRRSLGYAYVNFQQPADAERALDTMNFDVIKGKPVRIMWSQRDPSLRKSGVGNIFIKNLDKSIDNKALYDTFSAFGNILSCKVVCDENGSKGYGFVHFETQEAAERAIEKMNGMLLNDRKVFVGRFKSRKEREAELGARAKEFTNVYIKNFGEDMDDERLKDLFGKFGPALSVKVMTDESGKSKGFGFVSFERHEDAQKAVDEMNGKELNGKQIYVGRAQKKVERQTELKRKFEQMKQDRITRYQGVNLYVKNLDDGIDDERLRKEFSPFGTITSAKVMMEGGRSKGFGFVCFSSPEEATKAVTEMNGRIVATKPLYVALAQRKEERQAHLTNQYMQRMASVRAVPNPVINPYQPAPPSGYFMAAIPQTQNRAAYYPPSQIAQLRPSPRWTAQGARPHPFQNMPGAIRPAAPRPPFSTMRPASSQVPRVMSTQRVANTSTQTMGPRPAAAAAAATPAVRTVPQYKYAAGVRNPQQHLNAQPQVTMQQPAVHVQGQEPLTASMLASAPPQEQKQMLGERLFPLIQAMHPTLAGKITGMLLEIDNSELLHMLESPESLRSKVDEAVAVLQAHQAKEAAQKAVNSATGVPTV
Glucose-6-phosphate 1-dehydrogenase, sequence (P11413 whole entry): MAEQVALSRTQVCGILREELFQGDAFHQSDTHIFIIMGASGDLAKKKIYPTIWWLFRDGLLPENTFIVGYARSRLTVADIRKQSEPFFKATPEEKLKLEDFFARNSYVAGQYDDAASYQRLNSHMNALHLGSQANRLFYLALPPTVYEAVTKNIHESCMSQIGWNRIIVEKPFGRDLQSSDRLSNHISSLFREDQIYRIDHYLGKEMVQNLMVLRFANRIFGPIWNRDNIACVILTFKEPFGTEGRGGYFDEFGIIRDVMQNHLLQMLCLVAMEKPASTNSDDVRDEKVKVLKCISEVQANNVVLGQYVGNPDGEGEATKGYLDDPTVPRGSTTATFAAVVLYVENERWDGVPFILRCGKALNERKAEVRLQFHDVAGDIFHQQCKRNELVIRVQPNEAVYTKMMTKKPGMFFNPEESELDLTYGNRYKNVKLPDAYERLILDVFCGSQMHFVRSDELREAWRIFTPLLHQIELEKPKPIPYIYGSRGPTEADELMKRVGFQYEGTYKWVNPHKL

Cc1ccc(-c2cc(C(F)(F)F)n3nc(C(=O)NCCCn4ccnc4)cc3n2)cc1C
IC50 (cells): > 50 µM (active) | CC50 [1]: > 40 µM (active)

Cc1ccc(CSC2=NCCN2C(=O)c2ccco2)cc1
AC50 [2]: 2.85 µM (active)

O=C(NN/C=C1\C(=O)N(Cc2ccccc2)C(=O)c2ccccc21)c1cccnc1
AC50 [2]: 3.35 µM (active)

Cc1nc(-c2ccc(NC(=O)CC(C)C)cc2)cs1
AC50 [2]: 2.38 µM (active)

CCCOc1ccc2c(c1)C(=NN=C(N)N)c1cc(OCCC)ccc1-2
AC50 [3]: 3.33 µM (active) | CC50 [1]: 12.2 µM (active)

Cc1ccc(CSc2nc3ccncc3n2CC(=O)Nc2cc(C)cc(C)c2)cc1
EC50 [4]: 30.7 µM (active) | EC50 [5]: 26.3 µM (active)

O=C(Nc1cccc(Cl)c1)c1cccc(N2C(=O)C3CC=CCC3C2=O)c1 (stereo not drawn)
AC50 (Caspase-6): 9.42 µM (active)

O=C(NC(=S)NC(CO)Cc1ccccc1)c1ccc(F)cc1 (stereo not drawn)
IC50 [6]: > 66 µM (inactive) | IC50 [7]: > 66 µM (inactive)

O=S(=O)(c1ccc2[nH]c(-c3ccccc3)nc2c1)N1CCN(c2ccc(Cl)cc2)CC1
EC50 [4]: 5.15 µM (active) | EC50 [5]: 4.83 µM (active)

O=C(CN1C(=O)C2C3C=CC(C3)C2C1=O)OCC(=O)c1ccc([N+](=O)[O-])cc1 (stereo not drawn)
IC50 [8]: > 80 µM (inactive)

CC(OC(=O)c1oc2ccccc2c1CSC1CCCCC1)C(=O)NC(N)=O (stereo not drawn)
EC50 [4]: 55.1 µM (active) | EC50 [5]: 24.9 µM (active)

Nc1n[nH]c(N)c1N=Nc1ccc(F)cc1
IC50 (Leucine aminopeptidase): 8.11 µM (active) | IC50 [9]: 30.8 µM (not active) | AC50 [2]: 2.29 µM (active)

Fc1ccc(CN2CC[C@H]3C=CCc4cccc(c43)C2)cc1
IC50 [6]: > 66 µM (inactive) | IC50 [7]: > 66 µM (inactive)

Clc1ccc(-c2[nH]ncc2N=Nc2ccccc2)cc1
CC50 [1]: > 40 µM (active) | AC50 (INS1): > 120 µM (inactive)

O=C(O)c1cccc(S(=O)(=O)Nc2ccc3c(c2)OCO3)c1
IC50 [6]: > 66 µM (inactive) | IC50 [7]: > 66 µM (inactive)

Cc1cc(C)c2ccc(NN)nc2c1O
IC50 (H9c2): 5.06 µM (active) | EC50 [10]: 3.27 µM (active) | CC50 [1]: > 40 µM (active) | CC50 [11]: 36 µM (active) | EC50 (Streptococcus): 6.5 µM (active)

Cc1cc(Nc2[nH]nc(N)c2C#N)ccc1F
AC50 [2]: 2.22 µM (active)

COC(=O)c1c(C)c2c(C)cc3ccccn3c-2c1C(=O)OC
IC50 (Genome polyprotein): > 100 µM (active)
